Reference: ChEMBL document CHEMBL5465560, “Selectivity Literature for EUbOPEN Chemogenomic Library” (2024)
Blank lines part the entries; values can stand above or below the compound they belong to.

How the values were obtained:
[1] = biological target: T1, Mitogen-activated protein kinase kinase kinase kinase 3 (Homo sapiens) (UniProt Q8IVH8); test: Selectivity interaction (KinomeScan (DiscoverX)) EUB0000655a MAP4K3; settings: at 10 µM
T1 sequence (whole entry): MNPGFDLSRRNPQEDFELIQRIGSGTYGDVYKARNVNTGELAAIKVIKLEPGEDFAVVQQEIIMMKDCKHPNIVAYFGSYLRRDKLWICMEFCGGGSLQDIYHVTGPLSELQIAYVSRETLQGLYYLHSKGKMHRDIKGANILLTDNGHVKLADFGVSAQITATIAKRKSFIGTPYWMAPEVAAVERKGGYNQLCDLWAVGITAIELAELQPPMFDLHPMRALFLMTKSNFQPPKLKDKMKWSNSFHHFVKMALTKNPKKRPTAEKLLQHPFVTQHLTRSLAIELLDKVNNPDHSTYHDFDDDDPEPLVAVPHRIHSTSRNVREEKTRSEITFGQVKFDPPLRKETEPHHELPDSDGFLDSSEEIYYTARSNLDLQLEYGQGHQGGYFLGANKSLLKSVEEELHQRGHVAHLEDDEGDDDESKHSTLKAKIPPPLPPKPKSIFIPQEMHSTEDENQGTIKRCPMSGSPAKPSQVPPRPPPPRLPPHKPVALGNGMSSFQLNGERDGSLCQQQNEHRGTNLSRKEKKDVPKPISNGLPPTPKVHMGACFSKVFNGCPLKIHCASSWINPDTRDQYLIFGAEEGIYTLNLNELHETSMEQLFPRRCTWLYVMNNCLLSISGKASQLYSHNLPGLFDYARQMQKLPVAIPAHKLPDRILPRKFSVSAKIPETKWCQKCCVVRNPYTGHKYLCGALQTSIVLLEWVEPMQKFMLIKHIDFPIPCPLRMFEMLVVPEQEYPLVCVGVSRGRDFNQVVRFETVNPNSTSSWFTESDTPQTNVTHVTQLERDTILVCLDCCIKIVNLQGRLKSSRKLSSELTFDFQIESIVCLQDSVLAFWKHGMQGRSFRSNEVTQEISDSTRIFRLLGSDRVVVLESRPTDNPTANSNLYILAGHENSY

[2] = biological target: T2, Ephrin type-B receptor 2 (Homo sapiens) (UniProt P29323); test: Selectivity interaction (KinomeScan (DiscoverX)) EUB0000618a EPHB2; settings: at 10 µM
T2 sequence (whole entry): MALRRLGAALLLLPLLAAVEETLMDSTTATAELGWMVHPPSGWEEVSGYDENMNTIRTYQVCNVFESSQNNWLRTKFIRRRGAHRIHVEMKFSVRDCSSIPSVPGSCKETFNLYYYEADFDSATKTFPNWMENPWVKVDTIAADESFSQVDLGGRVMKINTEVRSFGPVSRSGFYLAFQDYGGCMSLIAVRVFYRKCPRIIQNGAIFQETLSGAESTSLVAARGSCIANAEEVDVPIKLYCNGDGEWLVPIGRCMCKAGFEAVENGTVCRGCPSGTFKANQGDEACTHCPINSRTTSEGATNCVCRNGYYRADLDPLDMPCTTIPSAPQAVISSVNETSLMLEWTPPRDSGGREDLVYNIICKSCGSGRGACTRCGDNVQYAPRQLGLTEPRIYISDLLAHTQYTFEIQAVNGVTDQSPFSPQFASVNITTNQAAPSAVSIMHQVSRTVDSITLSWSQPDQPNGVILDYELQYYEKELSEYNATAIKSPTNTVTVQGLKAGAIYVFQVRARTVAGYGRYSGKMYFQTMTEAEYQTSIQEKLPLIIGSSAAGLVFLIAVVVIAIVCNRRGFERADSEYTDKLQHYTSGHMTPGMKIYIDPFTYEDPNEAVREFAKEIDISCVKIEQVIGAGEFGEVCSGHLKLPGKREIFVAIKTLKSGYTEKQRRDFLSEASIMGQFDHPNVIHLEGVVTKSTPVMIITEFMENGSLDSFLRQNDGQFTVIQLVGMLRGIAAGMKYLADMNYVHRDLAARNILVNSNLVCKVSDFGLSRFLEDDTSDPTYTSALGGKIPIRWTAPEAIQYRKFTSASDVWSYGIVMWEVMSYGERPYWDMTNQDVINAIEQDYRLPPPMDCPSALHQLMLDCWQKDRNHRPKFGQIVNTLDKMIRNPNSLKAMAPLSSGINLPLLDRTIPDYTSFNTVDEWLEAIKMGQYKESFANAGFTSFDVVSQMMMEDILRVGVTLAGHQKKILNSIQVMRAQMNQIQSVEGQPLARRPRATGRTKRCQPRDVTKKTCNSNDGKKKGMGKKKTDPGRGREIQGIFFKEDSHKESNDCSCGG

[3] = biological target: Histone-lysine N-methyltransferase ASH1L (Homo sapiens) (UniProt Q9NR48); test: Selectivity interaction (Transferase panel (protein, RNA, and DNA methyltransferases. and EP300 (acetyltransferase))) EUB0000270b ASH1L
[4] = biological target: TRAF2 and NCK-interacting protein kinase (Homo sapiens) (UniProt Q9UKE5); test: Selectivity interaction (KinomeScan (DiscoverX)) EUB0000229b TNIK; settings: at 10 µM
TRAF2 and NCK-interacting protein kinase (Homo sapiens), sequence (Q9UKE5 whole entry, looked up): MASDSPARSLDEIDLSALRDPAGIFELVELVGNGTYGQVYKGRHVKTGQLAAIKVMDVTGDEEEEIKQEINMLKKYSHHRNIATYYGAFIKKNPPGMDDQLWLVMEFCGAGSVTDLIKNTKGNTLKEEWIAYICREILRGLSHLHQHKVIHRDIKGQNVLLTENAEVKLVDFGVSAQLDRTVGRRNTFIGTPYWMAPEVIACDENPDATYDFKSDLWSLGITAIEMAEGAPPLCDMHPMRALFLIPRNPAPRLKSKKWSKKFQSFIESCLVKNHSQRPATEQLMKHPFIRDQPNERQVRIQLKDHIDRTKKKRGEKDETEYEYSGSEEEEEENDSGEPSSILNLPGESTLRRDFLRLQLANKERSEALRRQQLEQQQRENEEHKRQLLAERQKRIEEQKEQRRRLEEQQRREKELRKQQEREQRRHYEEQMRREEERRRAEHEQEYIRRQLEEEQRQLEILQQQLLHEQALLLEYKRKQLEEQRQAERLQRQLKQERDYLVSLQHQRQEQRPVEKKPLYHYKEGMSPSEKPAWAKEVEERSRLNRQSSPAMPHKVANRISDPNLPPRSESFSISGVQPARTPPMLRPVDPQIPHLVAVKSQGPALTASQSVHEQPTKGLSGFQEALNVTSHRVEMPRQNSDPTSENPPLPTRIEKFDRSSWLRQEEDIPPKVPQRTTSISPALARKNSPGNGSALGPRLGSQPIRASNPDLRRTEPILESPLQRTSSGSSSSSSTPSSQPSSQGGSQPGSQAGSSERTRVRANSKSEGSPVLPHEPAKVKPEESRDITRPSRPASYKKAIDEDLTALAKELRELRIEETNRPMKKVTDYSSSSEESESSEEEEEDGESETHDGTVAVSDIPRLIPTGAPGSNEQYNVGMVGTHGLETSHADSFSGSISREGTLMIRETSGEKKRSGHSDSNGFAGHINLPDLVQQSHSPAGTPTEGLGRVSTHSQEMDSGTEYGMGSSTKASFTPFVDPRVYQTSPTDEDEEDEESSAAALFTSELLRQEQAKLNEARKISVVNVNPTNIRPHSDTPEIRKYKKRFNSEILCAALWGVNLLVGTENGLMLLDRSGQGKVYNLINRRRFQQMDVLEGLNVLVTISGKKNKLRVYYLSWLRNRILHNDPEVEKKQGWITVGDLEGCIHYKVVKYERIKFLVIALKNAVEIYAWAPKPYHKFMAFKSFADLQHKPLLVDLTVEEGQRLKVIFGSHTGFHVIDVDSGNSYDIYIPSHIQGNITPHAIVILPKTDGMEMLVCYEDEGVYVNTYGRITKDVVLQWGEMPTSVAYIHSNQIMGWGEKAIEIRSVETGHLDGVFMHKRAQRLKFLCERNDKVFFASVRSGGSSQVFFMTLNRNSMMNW

[5] = biological target: Ribosomal protein S6 kinase alpha-4 (Homo sapiens) (UniProt O75676); test: Selectivity interaction (KinomeScan (DiscoverX)) EUB0000092b RPS6KA4; settings: at 10 µM
Ribosomal protein S6 kinase alpha-4 (Homo sapiens), sequence (O75676 whole entry, looked up): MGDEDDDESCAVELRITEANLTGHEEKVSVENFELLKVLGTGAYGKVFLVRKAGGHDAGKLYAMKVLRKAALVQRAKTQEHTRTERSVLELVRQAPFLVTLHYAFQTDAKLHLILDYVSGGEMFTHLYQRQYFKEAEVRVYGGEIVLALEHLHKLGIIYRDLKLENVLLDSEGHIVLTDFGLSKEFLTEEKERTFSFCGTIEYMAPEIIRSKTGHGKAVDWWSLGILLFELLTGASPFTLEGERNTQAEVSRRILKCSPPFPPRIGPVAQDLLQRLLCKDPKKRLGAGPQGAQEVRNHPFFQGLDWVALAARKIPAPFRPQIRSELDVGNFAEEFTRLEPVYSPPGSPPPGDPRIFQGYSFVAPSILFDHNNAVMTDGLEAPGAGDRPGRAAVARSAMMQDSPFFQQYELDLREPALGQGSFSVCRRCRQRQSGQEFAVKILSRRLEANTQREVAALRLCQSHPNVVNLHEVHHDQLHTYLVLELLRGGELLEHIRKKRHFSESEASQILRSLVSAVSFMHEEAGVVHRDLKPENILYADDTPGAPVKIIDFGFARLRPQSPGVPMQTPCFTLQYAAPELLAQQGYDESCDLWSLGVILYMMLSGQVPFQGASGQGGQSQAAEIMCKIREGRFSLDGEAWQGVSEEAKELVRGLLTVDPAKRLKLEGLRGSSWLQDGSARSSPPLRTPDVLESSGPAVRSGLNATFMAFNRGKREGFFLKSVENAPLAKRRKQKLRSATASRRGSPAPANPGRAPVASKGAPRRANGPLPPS

[6] = biological target: T3, Serine/threonine-protein kinase TBK1 (Homo sapiens) (UniProt Q9UHD2); test: Selectivity interaction (Kinase panel (Z-LYTE Assay)) EUB0001632a TBK1; settings: at 10 µM
T3 sequence (whole entry): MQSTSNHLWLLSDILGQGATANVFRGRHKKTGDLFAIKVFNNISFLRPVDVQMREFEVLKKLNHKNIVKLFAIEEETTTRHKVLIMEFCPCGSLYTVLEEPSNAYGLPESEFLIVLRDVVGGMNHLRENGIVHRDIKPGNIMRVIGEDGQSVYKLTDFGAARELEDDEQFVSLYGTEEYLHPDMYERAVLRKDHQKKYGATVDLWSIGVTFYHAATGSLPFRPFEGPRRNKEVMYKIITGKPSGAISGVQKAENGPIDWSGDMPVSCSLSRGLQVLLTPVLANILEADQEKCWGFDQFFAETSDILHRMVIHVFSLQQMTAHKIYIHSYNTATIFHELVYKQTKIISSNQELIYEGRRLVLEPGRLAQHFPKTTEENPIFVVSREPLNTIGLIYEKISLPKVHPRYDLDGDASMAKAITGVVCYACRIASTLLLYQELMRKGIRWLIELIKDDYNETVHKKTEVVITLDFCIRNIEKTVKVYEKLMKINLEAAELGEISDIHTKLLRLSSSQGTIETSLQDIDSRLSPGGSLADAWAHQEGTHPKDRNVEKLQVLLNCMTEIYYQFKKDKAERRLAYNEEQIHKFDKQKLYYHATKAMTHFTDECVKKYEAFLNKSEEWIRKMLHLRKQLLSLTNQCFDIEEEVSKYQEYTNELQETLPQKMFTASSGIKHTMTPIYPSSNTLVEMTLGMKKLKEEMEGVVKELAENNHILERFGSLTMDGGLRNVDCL

SMILES: CN(C)CCOc1ccc(-c2nc(-c3ccncc3)c(-c3ccc4c(c3)CC/C4=N\O)[nH]2)cc1
- % of control [1]: 98%

SMILES: O[C@H]1CC[C@H](Nc2ncc3nc(Nc4c(F)cc(F)cc4F)n([C@H]4CCOC4)c3n2)CC1
- % of control [2]: 72%

- % activity ([3]; at 1 µM): > 90%
- % activity ([3]; at 10 µM): > 80%
SMILES: Cc1cc(CN)cc(C)c1-c1ncn(C)c1-c1cncn1C

SMILES: COc1cc(N(C)c2ccnc3ccc(C(F)(F)F)cc23)cc(OC)c1OC
- % binding [4]: 69%

SMILES: CCC(=O)N1CCN(c2ccc(-n3c(=O)ccc4cnc5ccc(-c6cnc7ccccc7c6)cc5c43)cc2C(F)(F)F)CC1
- % of control [5]: 100%

- % of control [6]: -4.28%
SMILES: Cn1cc(-n2cnc3c(NCc4nc5cc(Cl)c(Cl)cc5[nH]4)nc(N4CCOCC4)nc32)cn1
